Drawing on US20240150365A1 (Hotspot Therapeutics, Inc., priority 2022, published 2024), this text covers IC50 for 24 compounds.

Experiment [1] deals with T1, MALT1 (Homo sapiens, UniProt Q9UDY8).
T1 construct: Avi-tagged FL MALT-1 (Pharmaron, stored at −70° C.); Avi tag
T1 sequence (Q9UDY8 1-824): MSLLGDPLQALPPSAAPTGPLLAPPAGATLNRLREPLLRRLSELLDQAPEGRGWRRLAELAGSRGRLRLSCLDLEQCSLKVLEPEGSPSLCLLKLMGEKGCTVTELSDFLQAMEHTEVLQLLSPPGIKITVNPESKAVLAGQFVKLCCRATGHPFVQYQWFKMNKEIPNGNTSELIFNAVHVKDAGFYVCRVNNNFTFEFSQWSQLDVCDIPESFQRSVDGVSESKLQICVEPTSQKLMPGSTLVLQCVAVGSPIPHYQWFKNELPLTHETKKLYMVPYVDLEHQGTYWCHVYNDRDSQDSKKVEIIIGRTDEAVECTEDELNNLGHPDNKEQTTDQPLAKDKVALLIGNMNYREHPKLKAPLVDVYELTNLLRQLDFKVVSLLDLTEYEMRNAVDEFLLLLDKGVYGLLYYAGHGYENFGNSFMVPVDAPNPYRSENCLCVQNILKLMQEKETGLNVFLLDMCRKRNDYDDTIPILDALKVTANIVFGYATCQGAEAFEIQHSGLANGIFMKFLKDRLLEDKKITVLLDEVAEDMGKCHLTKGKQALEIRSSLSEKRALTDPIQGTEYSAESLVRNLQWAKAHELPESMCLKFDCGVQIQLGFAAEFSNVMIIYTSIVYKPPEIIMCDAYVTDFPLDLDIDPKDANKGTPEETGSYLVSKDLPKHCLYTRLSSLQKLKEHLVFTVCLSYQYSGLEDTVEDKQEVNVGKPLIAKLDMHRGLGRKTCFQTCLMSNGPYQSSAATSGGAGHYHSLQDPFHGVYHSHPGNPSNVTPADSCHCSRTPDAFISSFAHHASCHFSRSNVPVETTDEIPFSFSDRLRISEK
Nature of the experiment: MALT-1 Fluorogenic Peptide Cleavage Assay (MALT1 inhibition assay). It counts as biochemical. The following applies: Avi-tagged FL MALT-1, Ac-LRSR-AMC peptide substrate, 30 min pre-incubation, 90 min reaction. A digest of the protocol:
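Avi-tagged full-length MALT1 pre-incubated 30 min with compound (2% DMSO final), then cleavage of Ac-LRSR-AMC followed over 90 min at room temperature. AMC fluorescence read at 342/441 nm; % inhibition fitted to sigmoidal curves for IC50.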

Experiment [2] has as its system NF-kB. Nature of the experiment: NF-kB reporter assay in Jurkat cells stimulated with aCD3/aCD28/PMA. Particulars: Homo sapiens, Jurkat, read-out: NF-kB Reporter Assay IC50. It counts as cell-based. The method, boiled down:
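Jurkat cells (25,000/well, serum-free RPMI 1640) preincubated 1 hr at 37° C with serially diluted compound, then stimulated with aCD3/aCD28/PMA (final 5 μg/mL, 5 μg/mL, 0.03 μg/mL) for 4 hr. Reporter luminescence read with One-Glo; IC50 derived.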
Background: Reporter assays use an easily measured gene product as a stand-in for the process of interest.

[3] abbreviates: Jurkat cells, 1 hr compound incubation, aCD3/aCD28/PMA stimulation 4 hr, One-Glo readout.

Read-outs that look alike come from different tables or passages of the source.

For orientation: IC50 means the concentration that gives 50% inhibition. Consider `COc1ccc2cnn(C)c2c1N(CCCN(C)C)S(=O)(=O)c1ccc(-n2cc(C(F)(F)F)cn2)nc1` [Example I-164, N-(3-(Dimethylamino)Propyl)-N-(6-Methoxy-1-Methyl-1H-Indazol-7-yl)-6-(4-(Trifluoromethyl)-1H-Pyrazol-1-yl)Pyridine-3-Sulfonamide], for which the IC50 in experiment [1] was less than 400 nM; in experiment [2] (setting [3]) it was 400 to 1000 nM.
Taken in the same sequence, the figures for `COc1ccc2cnn(C)c2c1N(C)S(=O)(=O)c1ccc(-c2cc(C(F)(F)F)n(C)n2)nc1` [Example I-165, N-(6-Methoxy-1-Methyl-1H-Indazol-7-yl)-N-Methyl-6-(1-Methyl-5-(Trifluoromethyl)-1H-Pyrazol-3-yl)Pyridine-3-Sulfonamide] were less than 400 nM and less than 400 nM.
With `COc1ccc2cnn(C)c2c1NS(=O)(=O)c1ccc(-c2nc(C)n[nH]2)nc1` [Example I-166, N-(6-Methoxy-1-Methyl-1H-Indazol-7-yl)-6-(3-Methyl-1H-1,2,4-Triazol-5-yl)Pyridine-3-Sulfonamide], the IC50 in experiment [1] and in experiment [2] (setting [3]) was greater than 2500 nM each time.
`COc1ccc2cnn(C)c2c1NS(=O)(=O)c1ccc(-c2nc(C(F)(F)F)n[nH]2)nc1` [Example I-167, N-(6-Methoxy-1-Methyl-1H-Indazol-7-yl)-6-(3-(Trifluoromethyl)-1H-1,2,4-Triazol-5-yl)Pyridine-3-Sulfonamide]: the IC50 in experiment [1] is 1000 to 2500 nM; in experiment [2] (setting [3]), greater than 2500 nM.
On the same counts, the results for `COc1ccc2cnn(C)c2c1NS(=O)(=O)c1ccc(-c2nnc(C)n2C)nc1` [Example I-168, 6-(4,5-dimethyl-4H-1,2,4-triazol-3-yl)-N-(6-methoxy-1-methyl-1H-indazol-7-yl)pyridine-3-sulfonamide] are greater than 2500 nM and greater than 2500 nM.
Consider `COc1ccc2cnn(C)c2c1NS(=O)(=O)c1ccc(-c2nc(C)no2)nc1` [Example I-169, N-(6-Methoxy-1-Methyl-1H-Indazol-7-yl)-6-(3-Methyl-1,2,4-Oxadiazol-5-yl)Pyridine-3-Sulfonamide], for which the IC50 is 1000 to 2500 nM in experiment [1] and greater than 2500 nM in experiment [2] (setting [3]).
Take `COc1ccc2cnn(C)c2c1NS(=O)(=O)c1ccc(-c2nnc(C)o2)nc1` [Example I-170, N-(6-Methoxy-1-Methyl-1H-Indazol-7-yl)-6-(5-Methyl-1,3,4-Oxadiazol-2-yl)Pyridine-3-Sulfonamide]: the IC50 in experiment [1] and in experiment [2] (setting [3]) was greater than 2500 nM in each case.
Regarding `CC(C)c1ccn(-c2ccc(S(=O)(=O)N(C)c3cccc4cnn(C)c34)cn2)n1` [Example I-171, 6-(3-isopropyl-1H-pyrazol-1-yl)-N-methyl-N-(1-methyl-1H-indazol-7-yl)pyridine-3-sulfonamide], the IC50 in experiment [1] was greater than 2500 nM; in experiment [2] (setting [3]), less than 400 nM.
Taken in the same sequence, the figures for `COc1ccc2cnn(C)c2c1N(C)S(=O)(=O)c1ccc(-n2cc(C(C)C)cn2)nc1` [Example I-172, 6-(4-isopropylpyrazol-1-yl)-N-(6-methoxy-1-methylindazol-7-yl)-N-methylpyridine-3-sulfonamide] were less than 400 nM and 400 to 1000 nM.
Take `COc1ccc2cnn(C)c2c1NS(=O)(=O)c1ccc(-c2csc(C)n2)nc1` [Example I-173, N-(6-methoxy-1-methylindazol-7-yl)-6-(2-methyl-1,3-thiazol-4-yl)pyridine-3-sulfonamide]: the IC50 in experiment [1] and in experiment [2] was less than 400 nM in each case.
For the compound `COc1ccc2[nH]cc(C)c2c1NS(=O)(=O)c1ccc(-n2cc(C(F)(F)F)cn2)nc1` [Example I-174, N-(5-methoxy-3-methyl-1H-indol-4-yl)-6-(4-(trifluoromethyl)-1H-pyrazol-1-yl)pyridine-3-sulfonamide], the half-maximal inhibitory concentration (IC50) in experiment [1] and in experiment [2] (setting [3]) was less than 400 nM throughout.
As to `COc1ccc2cn[nH]c2c1NS(=O)(=O)c1ccc(-n2cc(C(F)(F)F)cn2)nc1` [Example I-175, N-(6-methoxy-1H-indazol-7-yl)-6-(4-(trifluoromethyl)-1H-pyrazol-1-yl)pyridine-3-sulfonamide], the IC50 in experiment [1] and in experiment [2] (setting [3]) was less than 400 nM throughout.
Take `COc1ccc2cnn(C)c2c1NS(=O)(=O)c1ccc(-c2nc(C)n(C)n2)nc1` [Example I-176, 6-(1,5-Dimethyl-1,2,4-Triazol-3-yl)-N-(6-Methoxy-1-Methylindazol-7-yl)Pyridine-3-Sulfonamide]: the IC50 in experiment [1] and in experiment [2] (setting [3]) was greater than 2500 nM throughout.
Take `COc1ccc2cnn(C)c2c1NS(=O)(=O)c1ccc(CO)nc1` [Example I-177, 6-(Hydroxymethyl)-N-(6-Methoxy-1-Methyl-1H-Indazol-7-yl)Pyridine-3-Sulfonamide]: the IC50 in experiment [1] and in experiment [2] (setting [3]) was greater than 2500 nM throughout.
For `COc1ccc2cnn(C)c2c1NS(=O)(=O)c1ccc(C(C)(C)O)nc1` [Example I-178, 6-(2-Hydroxypropan-2-yl)-N-(6-Methoxy-1-Methyl-1H-Indazol-7-yl)Pyridine-3-Sulfonamide], the IC50 in experiment [1] and in experiment [2] (setting [3]) was greater than 2500 nM in each case.
Take `Cn1c(=O)c2cccc(N)c2n1S(=O)(=O)c1ccc(-n2cc(C(F)(F)F)cn2)nc1` [Example I-179, 7-Amino-2-Methyl-1-((6-(4-(Trifluoromethyl)-1H-Pyrazol-1-yl)Pyridin-3-yl)Sulfonyl)-1,2-Dihydro-3H-Indazol-3-One]: the IC50 in experiment [1] and in experiment [2] (setting [3]) was greater than 2500 nM throughout.
For `COc1ncc2nnn(C)c2c1NS(=O)(=O)c1ccc(-n2cc(C(F)(F)F)cn2)nc1` [Example I-180, N-{6-methoxy-1-methyl-[1,2,3]triazolo[4,5-c]pyridin-7-yl}-6-[4-(trifluoromethyl)pyrazol-1-yl]pyridine-3-sulfonamide], the IC50 in experiment [1] fell in the range of 400 to 1000 nM; in experiment [2] (setting [3]), 1000 to 2500 nM.
Taken in the same sequence, the figures for `Cn1[nH]c2c(NS(=O)(=O)c3ccc(-n4cc(C(F)(F)F)cn4)nc3)cccc2c1=O` [Example I-181, N-(2-methyl-3-oxo-2,3-dihydro-1H-indazol-7-yl)-6-(4-(trifluoromethyl)-1H-pyrazol-1-yl)pyridine-3-sulfonamide] were greater than 2500 nM and 400 to 1000 nM.
For the compound `Cn1c(=O)c2c(NS(=O)(=O)c3ccc(-n4cc(C(F)(F)F)cn4)nc3)cccc2n1C` [Example I-182, N-(1,2-dimethyl-3-oxo-2,3-dihydro-1H-indazol-4-yl)-6-(4-(trifluoromethyl)-1H-pyrazol-1-yl)pyridine-3-sulfonamide], the half-maximal inhibitory concentration (IC50) in experiment [1] and in experiment [2] (setting [3]) was greater than 2500 nM throughout.
Take `COc1ncc2cnn(C)c2c1N(C)S(=O)(=O)c1ccc(-n2cc(C(F)(F)F)cn2)nc1` [Example I-183, N-(6-methoxy-1-methyl-1H-pyrazolo[4,3-c]pyridin-7-yl)-N-methyl-6-(4-(trifluoromethyl)-1H-pyrazol-1-yl)pyridine-3-sulfonamide]: the IC50 in experiment [1] and in experiment [2] (setting [3]) was less than 400 nM in each case.
For the compound `COc1ncc2cnn(C)c2c1NS(=O)(=O)c1ccc(-n2cc(C)cn2)nc1` [Example I-184, N-{6-methoxy-1-methylpyrazolo[4,3-c]pyridin-7-yl}-6-(4-methylpyrazol-1-yl)pyridine-3-sulfonamide], the IC50 in experiment [1] and in experiment [2] (setting [3]) was less than 400 nM each time.
Take `COc1ncc2cnn(C)c2c1NS(=O)(=O)c1ccc(-n2ccc(C3CC3)n2)nc1` [Example I-185, 6-(3-cyclopropyl-1H-pyrazol-1-yl)-N-(6-methoxy-1-methyl-1H-pyrazolo[4,3-c]pyridin-7-yl)pyridine-3-sulfonamide]: the IC50 in experiment [1] and in experiment [2] (setting [3]) was less than 400 nM each time.
As for `COc1ncc2cnn(C)c2c1NS(=O)(=O)c1ccc(-c2csc(C)n2)nc1` [Example I-186, N-(6-methoxy-1-methyl-1H-pyrazolo[4,3-c]pyridin-7-yl)-6-(2-methylthiazol-4-yl)pyridine-3-sulfonamide], the IC50 in experiment [1] and in experiment [2] (setting [3]) was less than 400 nM each time.
Consider `COc1ncc2cnn(C)c2c1NS(=O)(=O)c1ccc(-n2cc(C3CC3)cn2)nc1` [Example I-187, 6-(4-cyclopropylpyrazol-1-yl)-N-{6-methoxy-1-methylpyrazolo[4,3-c]pyridin-7-yl}pyridine-3-sulfonamide], for which the IC50 in experiment [1] and in experiment [2] (setting [3]) was less than 400 nM each time.
